Test results from the supplement of paper PMC10307832.

Columns and labels:
Experiment in all cases: relative viability (nuclei count vs DMSO), 5 days (fraction); higher = more cells survive
Bleomycin + OSI-027 = compound: CC1=C(N=C(N=C1N)[C@H](CC(=O)N)NC[C@@H](C(=O)N)N)C(=O)N[C@@H]([C@H](C2=CN=CN2)OC3C(C(C(C(O3)CO)O)O)OC4C(C(C(C(O4)CO)O)OC(=O)N)O)C(=O)N[C@H](C)[C@H]([C@H](C)C(=O)N[C@@H]([C@@H](C)O)C(=O)NCCC5=NC(=CS5)C6=NC(=CS6)C(=O)NCCC[S+](C)C)O [Bleomycin] + COc1cccc2cc(-c3nc([C@H]4CC[C@H](C(=O)O)CC4)n4ncnc(N)c34)[nH]c12 [OSI-027] (partner 0.5 µM); conditions: main component drawn
Outline: (§1)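 Lung cancer cell lines were seeded in 1536-well plates and dosed by pin tool the next day, with either a single drug or a fixed anchor-drug dose combined with five library-drug doses (not always all listed) spaced in √10 steps. Five days later, one step fixed the cells and stained their nuclei (final 0.05% Triton X-100, 1% formaldehyde, 1 ug/ml Hoechst), and nuclei were counted on 4× images. Relative viability is the nuclei count in treated wells divided by the count in vehicle wells, and each value is the median of duplicate plates.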

Etoposide + Luminespib = compound: COc1cc([C@@H]2c3cc4c(cc3[C@@H](O[C@@H]3O[C@@H]5CO[C@@H](C)O[C@H]5[C@H](O)[C@H]3O)[C@H]3COC(=O)[C@H]23)OCO4)cc(OC)c1O [Etoposide] + CCNC(=O)c1noc(-c2cc(C(C)C)c(O)cc2O)c1-c1ccc(CN2CCOCC2)cc1 [Luminespib] (partner 0.01 µM)
Outline: as §1

Etoposide + Lapatinib = compound: COc1cc([C@@H]2c3cc4c(cc3[C@@H](O[C@@H]3O[C@@H]5CO[C@@H](C)O[C@H]5[C@H](O)[C@H]3O)[C@H]3COC(=O)[C@H]23)OCO4)cc(OC)c1O [Etoposide] + CS(=O)(=O)CCNCc1ccc(-c2ccc3ncnc(Nc4ccc(OCc5cccc(F)c5)c(Cl)c4)c3c2)o1 [Lapatinib] (partner 2 µM)
Outline: as §1

Etoposide + AZD7762 = compound: COc1cc([C@@H]2c3cc4c(cc3[C@@H](O[C@@H]3O[C@@H]5CO[C@@H](C)O[C@H]5[C@H](O)[C@H]3O)[C@H]3COC(=O)[C@H]23)OCO4)cc(OC)c1O [Etoposide] + NC(=O)Nc1cc(-c2cccc(F)c2)sc1C(=O)N[C@H]1CCCNC1 [AZD7762] (partner 0.2 µM)
Outline: as §1

Cell Line | relative viability (Bleomycin + OSI-027; first compound 0.01 µM) | relative viability (Bleomycin + OSI-027; first compound 0.03162 µM) | relative viability (Bleomycin + OSI-027; first compound 0.1 µM) | relative viability (Bleomycin + OSI-027; first compound 0.3162 µM) | relative viability (Bleomycin + OSI-027; first compound 1 µM) | relative viability (Etoposide + Luminespib; first compound 0.01 µM) | relative viability (Etoposide + Luminespib; first compound 0.03162 µM) | relative viability (Etoposide + Luminespib; first compound 0.1 µM) | relative viability (Etoposide + Luminespib; first compound 0.3162 µM) | relative viability (Etoposide + Luminespib; first compound 1 µM) | relative viability (Etoposide + Lapatinib; first compound 0.01 µM) | relative viability (Etoposide + Lapatinib; first compound 0.03162 µM) | relative viability (Etoposide + Lapatinib; first compound 0.1 µM) | relative viability (Etoposide + Lapatinib; first compound 0.3162 µM) | relative viability (Etoposide + Lapatinib; first compound 1 µM) | relative viability (Etoposide + AZD7762; first compound 0.01 µM) | relative viability (Etoposide + AZD7762; first compound 0.03162 µM) | relative viability (Etoposide + AZD7762; first compound 0.1 µM) | relative viability (Etoposide + AZD7762; first compound 0.3162 µM) | relative viability (Etoposide + AZD7762; first compound 1 µM)
HOP-62 | 0.383 | 0.498 | 0.333 | 0.184 | 0.127 | 0.855 | 0.977 | 0.866 | 0.638 | 0.307 | 0.973 | 1.05 | 0.833 | 0.533 | 0.187 | 0.486 | 0.634 | 0.284 | 0.329 | 0.24
NCI-H358 | 0.73 | 0.67 | 0.662 | 0.335 | 0.185 | 0.243 | 0.327 | 0.209 | 0.179 | 0.095 | 0.507 | 0.437 | 0.369 | 0.268 | 0.152 | 0.512 | 0.527 | 0.332 | 0.288 | 0.266
EPLC-272H | 0.258 | 0.257 | 0.21 | 0.147 | 0.149 | 0.185 | 0.238 | 0.207 | 0.265 | 0.12 | 0.862 | 1.05 | 0.497 | 0.807 | 0.408 | 0.272 | 0.269 | 0.183 | 0.182 | 0.0802
RERF-LC-KJ | 0.378 | 0.364 | 0.314 | 0.244 | 0.239 | 1.16 | 1.2 | 1.29 | 0.93 | 0.724 | 0.882 | 0.863 | 0.626 | 0.828 | 0.733 | 0.935 | 1.1 | 0.583 | 0.861 | 0.967
PC-14 | 0.439 | 0.435 | 0.114 | 0.0634 | 0.0557 | 0.112 | 0.172 | 0.143 | 0.138 | 0.151 | 0.307 | 0.349 | 0.225 | 0.366 | 0.229 | 0.338 | 0.396 | 0.317 | 0.307 | 0.17
NCI-H3122 | 0.917 | 1.03 | 0.76 | 0.262 | 0.261 | 0.072 | 0.0992 | 0.0664 | 0.116 | 0.076 | 1.09 | 0.998 | 0.97 | 0.91 | 0.451 | 0.998 | 0.998 | 0.834 | 0.607 | 0.181
NCI-H1395 | 0.533 | 0.647 | 0.516 | 0.367 | 0.404 | 0.713 | 0.539 | 0.607 | 0.54 | 0.415 | 0.907 | 1.09 | 0.969 | 0.836 | 0.74 | 0.423 | 0.435 | 0.4 | 0.375 | 0.362
NCI-H727 | 0.731 | 0.685 | 0.637 | – | 0.528 | 0.53 | 0.294 | – | 0.3 | 0.418 | 0.844 | 0.937 | 0.511 | 0.665 | 0.589 | 0.647 | 0.582 | 0.405 | 0.527 | 0.579
NCI-H1915 | 0.434 | 0.429 | 0.373 | 0.21 | 0.144 | 0.714 | 0.634 | 0.808 | 0.617 | 0.394 | 0.907 | 1.03 | 0.913 | 0.749 | 0.524 | 0.66 | 0.777 | 0.697 | 0.648 | 0.527
CAL-12T | 0.551 | 0.465 | 0.389 | 0.21 | 0.174 | 0.28 | 0.531 | 0.212 | 0.287 | 0.348 | 0.73 | 0.688 | 0.434 | 0.52 | 0.356 | 0.567 | 0.792 | 0.613 | 0.477 | 0.409
NCI-H2087 | – | 0.515 | 0.379 | 0.123 | 0.126 | 0.153 | 0.162 | 0.165 | 0.164 | 0.155 | – | 0.83 | 0.912 | 0.551 | 0.278 | 1.46 | 1.3 | 1.3 | 1.08 | 0.78
LXF-289 | 0.647 | 0.781 | 0.693 | 0.315 | 0.169 | 0.569 | 0.861 | 0.79 | 0.367 | 0.129 | 0.88 | 0.972 | 0.953 | 0.601 | 0.222 | 1.07 | 1.1 | 1.23 | 0.892 | 0.4
NCI-H1944 | 0.279 | 0.278 | 0.224 | 0.179 | 0.151 | 0.519 | 0.936 | 0.597 | 0.404 | 0.247 | 0.76 | 1.01 | 0.499 | 0.363 | 0.226 | 0.577 | 0.639 | 0.276 | 0.377 | 0.235
201T | 0.649 | 0.77 | 0.634 | 0.407 | 0.207 | 0.839 | 1.11 | 0.952 | 0.754 | 0.539 | 1.07 | 1.05 | 0.916 | 0.921 | 0.729 | 0.612 | 0.751 | 0.47 | 0.492 | 0.37
NCI-H2347 | 0.338 | 0.505 | 0.373 | 0.199 | 0.303 | 0.498 | 0.407 | 0.299 | 0.237 | 0.285 | 1.13 | 0.835 | 0.547 | 0.406 | 0.422 | 0.685 | 0.828 | 0.311 | 0.374 | 0.367
